One may read the logP as a log measure of how a compound divides between an organic and an aqueous phase. As usually defined, the IC50 is the concentration that gives 50% inhibition. High values mean a need for much substance, low ones inhibition by little substance.

Seven compounds from ChEMBL document CHEMBL3864156, “Inhibition of plasma lipid oxidation induced by peroxyl radicals, peroxynitrite, hypochlorite, 15-lipoxygenase, and singlet oxygen by clinical drugs” (Bioorg Med Chem Lett, 2016) can be followed below.

Data set [1] can be described thus: Antioxidant activity assessed as inhibition of Meo-AMVN-derived peroxyl radicals-induced fucoxanthin consumption at 50 uM. The format is functional.
Data set [2] is filed under the species Mus musculus. Description: Antioxidant activity in 10% C57BL/6J mouse plasma assessed as inhibition of AAPH-derived peroxyl radicals-induced pyranine consumption at 50 uM. It counts as functional, cell-free.
Data set [3] is filed under the species Mus musculus. Nature of the data set: Antioxidant activity in 10% C57BL/6J mouse plasma assessed as inhibition of NaOCl-induced lipid oxidation at 30 uM by DPPP-based fluorescence assay. The format is functional, cell-free.
Data set [4] in a line: 1-octanol-water partition coefficient, log P of the compound. The format is physicochemical.
Data set [5] can be described thus: Plasma concentration in paediatric patients with congestive heart failure. The settings on record: human. The format is ADME.
A short description of data set [6]: Plasma concentration in Sprague-Dawley rat at 1 mg/kg bolus dose with continuous infusion of 1 mg/kg per hour measured for 24 hrs. The settings on record: iv. It counts as ADME, organism-based.
For data set [7], the species on record is Mus musculus. Description: Antioxidant activity in 10% C57BL/6J mouse plasma assessed as inhibition of SIN-1-derived peroxynitrite-induced lipid oxidation by DPPP-based fluorescence assay. It counts as functional, cell-free.
For data set [8], the species on record is Mus musculus. Description: Antioxidant activity in 10% C57BL/6J mouse plasma assessed as inhibition of NaOCl-induced lipid oxidation by DPPP-based fluorescence assay. The format is functional, cell-free.
In data set [9] the target is T1, Polyunsaturated fatty acid lipoxygenase ALOX15 (Mus musculus) (UniProt P39654).
T1 sequence (whole entry): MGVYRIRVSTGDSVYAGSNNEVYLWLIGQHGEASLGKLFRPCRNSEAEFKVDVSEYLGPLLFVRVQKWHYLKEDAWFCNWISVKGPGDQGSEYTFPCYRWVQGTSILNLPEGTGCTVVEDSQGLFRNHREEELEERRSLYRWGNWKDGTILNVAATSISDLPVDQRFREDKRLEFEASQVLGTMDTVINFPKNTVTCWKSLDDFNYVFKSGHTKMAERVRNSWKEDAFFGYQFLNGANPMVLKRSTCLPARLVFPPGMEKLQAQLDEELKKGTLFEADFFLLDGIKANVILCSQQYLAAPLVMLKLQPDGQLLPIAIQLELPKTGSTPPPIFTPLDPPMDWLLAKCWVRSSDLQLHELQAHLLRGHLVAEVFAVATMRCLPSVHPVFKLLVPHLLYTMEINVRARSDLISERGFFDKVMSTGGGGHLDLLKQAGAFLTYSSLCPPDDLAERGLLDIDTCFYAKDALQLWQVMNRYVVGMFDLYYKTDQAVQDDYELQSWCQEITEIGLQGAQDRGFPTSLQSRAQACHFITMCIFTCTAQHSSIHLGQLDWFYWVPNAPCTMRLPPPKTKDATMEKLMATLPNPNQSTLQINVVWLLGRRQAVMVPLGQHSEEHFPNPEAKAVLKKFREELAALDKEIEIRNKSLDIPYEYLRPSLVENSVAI
Description: (§1) Inhibition of 15-LOX-mediated lipid oxidation in 10% C57BL/6J mouse plasma. It counts as cell-free.

Data set [10] addresses T2, Polyunsaturated fatty acid lipoxygenase ALOX15 (Mus musculus, UniProt P39654).
T2 sequence (P39654 whole entry): T1 sequence (whole entry)
The data set is described as §1. It counts as cell-free.

Data set [11] is described as follows: Plasma concentration in pediatric kawasaki patient at 10 to 25 mg/kg, po by HPLC method. It counts as ADME, organism-based. The settings on record: human, in vivo.
The nature of data set [12]: Drug level in plasma (unknown origin). It counts as ADME, cell-free.
Data set [13] in a line: Plasma concentration in human at 400 mg, po. The format is ADME, cell-free.
The mark [14] stands for this setting: 1-octanol/water, read-out: logP.

Activity calls are given as the source filed them. The calls are words filed in the database; no cut-off is given here.

With `Cc1c(C)c2c(c(C)c1O)CC[C@@](C)(CCC[C@H](C)CCC[C@H](C)CCCC(C)C)O2`, the inhibition result (in data set [1]; in the data set listed under Mus musculus [2]) was “Active” throughout.

Turning to `COc1ccccc1OCCNCC(O)COc1cccc2[nH]c3ccccc3c12` (centres undefined) [CARVEDILOL], the inhibition entry in the data set listed under Mus musculus [3] is “Dose-dependent effect”. This compound also displayed a logP in [4] (octanol/water) of 1.04. The compound also registered a concentration in [5] of 0.5 µM.

With `O=c1c2ccccc2[se]n1-c1ccccc1` [EBSELEN], the inhibition result in the data set filed under Mus musculus [3] is “Dose-dependent effect”. Further, in data set [4] (setting [14]), the logP stood at 1.25. Besides, the concentration at 24 h in data set [6] lay within 5 to 20 µM.

Turning to `CC1=NN(c2ccccc2)C(=O)C1` [EDARAVONE], the inhibition result in the data set filed under Mus musculus [2] was “Active”. Besides, the inhibition result (in the data set listed under Mus musculus [7]; in the data set filed under Mus musculus [8]; in data set [9]) was “Dose-dependent effect” each time. For the same compound, in [10], the IC50 is 34 µM. In data set [4] (setting [14]), the logP is 0.86.

`CC(=O)CCCCn1c(=O)c2c(ncn2C)n(C)c1=O` [PENTOXIFYLLINE]: in the data set listed under Mus musculus [3], the inhibition entry was “Dose-dependent effect”. Besides, the logP in data set [4] (setting [14]) is 0.19. Moreover, in [11], the concentration fell in the range of 5 to 20 µM.

As to `CC(C)(Sc1cc(C(C)(C)C)c(O)c(C(C)(C)C)c1)Sc1cc(C(C)(C)C)c(O)c(C(C)(C)C)c1` [PROBUCOL], in the data set listed under Mus musculus [2], the inhibition entry is “Active”. Moreover, the inhibition entry in the data set filed under Mus musculus [7] and in the data set filed under Mus musculus [8] was “Dose-dependent effect” in each case. For the same compound, in data set [4] (setting [14]), the logP is 1.02. This compound also returned a concentration in [12] of 30 µM.

Consider `Cc1c(C)c2c(c(C)c1O)CCC(C)(COc1ccc(CC3SC(=O)NC3=O)cc1)O2` (centres undefined) [TROGLITAZONE], for which the inhibition entry (in data set [1]; in the data set listed under Mus musculus [2]) was “Active” throughout. The inhibition result (in the data set listed under Mus musculus [3]; in data set [9]) was “Dose-dependent effect” each time. This compound also registered an IC50 in data set [10] of 20 µM. Further, in data set [4] (octanol/water), the logP was found to be 0.95. This compound showed a concentration in data set [13] of 5 to 20 µM.
